Assay [1] has as its target Serine/threonine-protein kinase B-raf (Homo sapiens) (UniProt P15056). Nature of the assay: Inhibition of full length GST-tagged human recombinant BRAF expressed in baculovirus using Fluorescein-MAP2K1 as substrate at 100 nM.
The target of assay [2] is Vascular endothelial growth factor receptor 2 (Homo sapiens) (UniProt P35968). Nature of the assay: Inhibition of full length His-tagged human recombinant VEGFR2 expressed in baculovirus using Fluorescein-Poly GT as substrate at 100 nM.
Sequence of Vascular endothelial growth factor receptor 2 (Homo sapiens) (P35968 whole entry): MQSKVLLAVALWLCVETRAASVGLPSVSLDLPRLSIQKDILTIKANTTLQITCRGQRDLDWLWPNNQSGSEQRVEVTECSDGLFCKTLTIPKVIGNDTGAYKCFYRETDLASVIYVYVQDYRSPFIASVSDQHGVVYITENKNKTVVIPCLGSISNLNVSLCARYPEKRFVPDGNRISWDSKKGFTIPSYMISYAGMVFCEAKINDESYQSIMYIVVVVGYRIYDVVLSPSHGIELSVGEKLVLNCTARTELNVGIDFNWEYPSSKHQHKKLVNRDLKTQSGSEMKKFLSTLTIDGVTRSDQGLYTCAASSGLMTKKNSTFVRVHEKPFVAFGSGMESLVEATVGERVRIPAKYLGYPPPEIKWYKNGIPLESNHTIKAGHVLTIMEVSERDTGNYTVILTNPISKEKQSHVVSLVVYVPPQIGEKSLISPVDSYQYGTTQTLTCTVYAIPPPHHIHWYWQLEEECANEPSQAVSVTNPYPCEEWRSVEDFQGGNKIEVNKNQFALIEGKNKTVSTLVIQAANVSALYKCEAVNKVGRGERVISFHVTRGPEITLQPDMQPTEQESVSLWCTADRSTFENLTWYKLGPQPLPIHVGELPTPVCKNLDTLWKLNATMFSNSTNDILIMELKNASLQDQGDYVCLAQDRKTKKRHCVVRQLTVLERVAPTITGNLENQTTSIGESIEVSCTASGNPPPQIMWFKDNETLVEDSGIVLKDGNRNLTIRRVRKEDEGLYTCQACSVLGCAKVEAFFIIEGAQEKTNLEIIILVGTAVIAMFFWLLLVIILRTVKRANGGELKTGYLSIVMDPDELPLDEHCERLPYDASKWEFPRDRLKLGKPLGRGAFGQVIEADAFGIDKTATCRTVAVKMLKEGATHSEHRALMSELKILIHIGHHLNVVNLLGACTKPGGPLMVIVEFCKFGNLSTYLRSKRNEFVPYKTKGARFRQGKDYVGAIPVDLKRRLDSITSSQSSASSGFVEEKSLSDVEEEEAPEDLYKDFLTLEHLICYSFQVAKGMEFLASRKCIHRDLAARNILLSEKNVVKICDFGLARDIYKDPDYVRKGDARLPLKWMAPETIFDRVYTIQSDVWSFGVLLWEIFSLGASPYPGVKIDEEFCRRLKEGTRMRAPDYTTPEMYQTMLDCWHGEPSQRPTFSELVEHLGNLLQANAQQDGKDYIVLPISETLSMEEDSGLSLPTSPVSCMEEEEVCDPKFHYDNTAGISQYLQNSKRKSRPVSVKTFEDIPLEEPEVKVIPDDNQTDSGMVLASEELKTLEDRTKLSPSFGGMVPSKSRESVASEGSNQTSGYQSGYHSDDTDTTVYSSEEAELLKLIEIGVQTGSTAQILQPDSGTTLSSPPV
In assay [3] the target is Platelet-derived growth factor receptor alpha (Homo sapiens, UniProt P16234). Description: Inhibition of full length GST-tagged human recombinant PDGFRalpha expressed in baculovirus using Fluorescein-Poly GT as substrate at 100 nM.
Assay [4] addresses Fibroblast growth factor receptor 2 (Homo sapiens) (UniProt P21802). Description: Inhibition of His-tagged human recombinant FGFR2 (403 to 822 residues) expressed in baculovirus using Fluorescein-Poly GT as substrate at 100 nM.
Assay [5] has as its target Epidermal growth factor receptor (Homo sapiens, UniProt P00533). Nature of the assay: Inhibition of GST-tagged human recombinant EGFR (668 to1210 residues) expressed in baculovirus using Fluorescein-Poly GT as substrate at 100 nM.
The target in assay [6] is Proto-oncogene tyrosine-protein kinase Src (Homo sapiens, UniProt P12931). Nature of the assay: Inhibition of full length His-tagged human recombinant cSRC expressed in baculovirus using Fluorescein-Poly GT as substrate at 100 nM.
Sequence of Proto-oncogene tyrosine-protein kinase Src (P12931 2-536 limits assumed): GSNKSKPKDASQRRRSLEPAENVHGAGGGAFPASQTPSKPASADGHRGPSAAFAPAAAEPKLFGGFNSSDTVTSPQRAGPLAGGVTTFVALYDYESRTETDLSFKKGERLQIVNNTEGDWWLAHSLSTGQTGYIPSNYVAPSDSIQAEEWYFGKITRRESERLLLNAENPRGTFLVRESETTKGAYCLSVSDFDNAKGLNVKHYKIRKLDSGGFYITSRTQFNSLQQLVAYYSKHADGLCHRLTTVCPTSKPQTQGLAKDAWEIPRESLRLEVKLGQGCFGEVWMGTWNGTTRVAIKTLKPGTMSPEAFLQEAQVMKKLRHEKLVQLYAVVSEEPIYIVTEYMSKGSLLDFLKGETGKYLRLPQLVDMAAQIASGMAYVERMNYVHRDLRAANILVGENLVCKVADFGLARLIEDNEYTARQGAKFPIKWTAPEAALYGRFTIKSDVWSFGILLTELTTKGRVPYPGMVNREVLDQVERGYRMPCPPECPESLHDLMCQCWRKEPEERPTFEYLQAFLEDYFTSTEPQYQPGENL

Sequence of Serine/threonine-protein kinase B-raf (Homo sapiens) (P15056 whole entry): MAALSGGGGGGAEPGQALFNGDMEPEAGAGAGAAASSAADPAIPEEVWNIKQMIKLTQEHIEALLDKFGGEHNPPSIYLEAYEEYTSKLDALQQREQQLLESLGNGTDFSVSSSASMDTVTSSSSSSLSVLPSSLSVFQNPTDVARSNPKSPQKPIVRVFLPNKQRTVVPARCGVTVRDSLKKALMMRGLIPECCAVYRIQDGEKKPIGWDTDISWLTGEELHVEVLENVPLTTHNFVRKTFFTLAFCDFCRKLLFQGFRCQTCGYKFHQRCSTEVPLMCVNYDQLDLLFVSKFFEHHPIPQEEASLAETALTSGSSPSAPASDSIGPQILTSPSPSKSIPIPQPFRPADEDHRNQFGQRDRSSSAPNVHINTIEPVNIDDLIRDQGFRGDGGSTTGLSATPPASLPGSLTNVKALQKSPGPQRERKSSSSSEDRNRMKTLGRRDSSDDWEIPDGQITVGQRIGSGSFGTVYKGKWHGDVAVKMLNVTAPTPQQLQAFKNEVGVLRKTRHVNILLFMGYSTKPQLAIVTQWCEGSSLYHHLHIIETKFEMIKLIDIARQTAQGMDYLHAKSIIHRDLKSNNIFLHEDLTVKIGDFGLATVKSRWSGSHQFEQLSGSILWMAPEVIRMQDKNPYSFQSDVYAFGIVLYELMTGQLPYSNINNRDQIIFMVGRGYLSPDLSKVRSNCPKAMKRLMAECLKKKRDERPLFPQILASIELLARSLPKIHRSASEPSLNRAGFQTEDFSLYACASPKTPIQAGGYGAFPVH
Sequence of Fibroblast growth factor receptor 2 (Homo sapiens) (P21802 22-821 limits assumed): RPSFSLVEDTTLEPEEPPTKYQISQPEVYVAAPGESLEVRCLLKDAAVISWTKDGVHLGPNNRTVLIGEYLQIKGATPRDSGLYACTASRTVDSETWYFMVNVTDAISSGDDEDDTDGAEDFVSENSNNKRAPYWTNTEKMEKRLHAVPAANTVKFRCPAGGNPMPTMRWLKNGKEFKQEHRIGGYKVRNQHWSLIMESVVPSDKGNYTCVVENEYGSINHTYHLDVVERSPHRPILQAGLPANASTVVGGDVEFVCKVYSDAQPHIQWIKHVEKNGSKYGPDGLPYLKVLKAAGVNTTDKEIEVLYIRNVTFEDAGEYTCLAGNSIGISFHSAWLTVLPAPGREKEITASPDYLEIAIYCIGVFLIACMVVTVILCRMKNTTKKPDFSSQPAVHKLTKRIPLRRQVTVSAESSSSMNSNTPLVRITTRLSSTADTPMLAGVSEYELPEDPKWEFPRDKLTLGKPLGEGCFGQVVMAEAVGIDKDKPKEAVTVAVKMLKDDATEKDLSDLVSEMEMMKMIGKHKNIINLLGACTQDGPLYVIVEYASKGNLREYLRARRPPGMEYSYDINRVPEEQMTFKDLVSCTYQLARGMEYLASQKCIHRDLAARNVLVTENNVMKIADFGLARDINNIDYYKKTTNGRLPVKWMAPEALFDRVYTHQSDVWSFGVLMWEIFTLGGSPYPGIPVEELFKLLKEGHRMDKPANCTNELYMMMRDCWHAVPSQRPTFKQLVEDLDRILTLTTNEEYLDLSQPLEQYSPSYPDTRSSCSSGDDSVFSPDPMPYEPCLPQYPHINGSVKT
Sequence of Epidermal growth factor receptor (P00533 whole entry, the tested form may be a part): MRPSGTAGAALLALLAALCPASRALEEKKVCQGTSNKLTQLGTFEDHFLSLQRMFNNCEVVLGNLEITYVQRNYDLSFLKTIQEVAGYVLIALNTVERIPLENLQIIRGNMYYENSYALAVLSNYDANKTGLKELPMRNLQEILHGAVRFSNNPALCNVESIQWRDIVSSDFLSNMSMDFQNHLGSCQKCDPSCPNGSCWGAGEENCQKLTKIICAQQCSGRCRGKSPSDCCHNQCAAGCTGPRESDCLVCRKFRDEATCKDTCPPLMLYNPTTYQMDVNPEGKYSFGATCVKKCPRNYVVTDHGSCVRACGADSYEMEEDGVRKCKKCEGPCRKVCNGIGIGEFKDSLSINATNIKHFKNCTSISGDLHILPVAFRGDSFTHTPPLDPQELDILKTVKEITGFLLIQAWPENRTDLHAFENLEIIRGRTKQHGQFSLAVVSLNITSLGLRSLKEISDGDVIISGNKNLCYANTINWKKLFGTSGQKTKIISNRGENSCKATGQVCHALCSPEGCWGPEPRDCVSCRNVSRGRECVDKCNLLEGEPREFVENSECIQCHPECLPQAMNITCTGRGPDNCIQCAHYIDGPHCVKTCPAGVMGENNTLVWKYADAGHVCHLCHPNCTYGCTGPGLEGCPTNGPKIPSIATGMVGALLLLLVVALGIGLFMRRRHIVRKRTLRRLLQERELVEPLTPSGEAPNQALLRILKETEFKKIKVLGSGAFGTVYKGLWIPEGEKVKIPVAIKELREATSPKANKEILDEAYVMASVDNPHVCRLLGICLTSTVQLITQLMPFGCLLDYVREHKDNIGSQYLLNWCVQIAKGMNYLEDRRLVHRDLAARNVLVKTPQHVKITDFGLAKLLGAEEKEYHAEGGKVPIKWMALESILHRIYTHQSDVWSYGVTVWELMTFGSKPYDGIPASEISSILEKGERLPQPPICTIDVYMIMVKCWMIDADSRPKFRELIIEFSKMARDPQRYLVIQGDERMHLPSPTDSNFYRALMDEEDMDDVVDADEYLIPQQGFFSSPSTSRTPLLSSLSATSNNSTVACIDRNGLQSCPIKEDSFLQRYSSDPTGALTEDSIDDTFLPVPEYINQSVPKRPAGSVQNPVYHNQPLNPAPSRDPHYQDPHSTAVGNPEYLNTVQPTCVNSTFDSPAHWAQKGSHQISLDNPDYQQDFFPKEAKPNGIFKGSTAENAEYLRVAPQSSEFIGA

One may read the inhibition as the relative decrease from the control value, in per cent. As for `COC(=O)c1cc2cc(NCc3cc(NC(=O)c4ccc(C)c(C(F)(F)F)c4)ccc3C)cnc2[nH]1`, the inhibition is 16% in assay [1]; 19% in assay [2]; 47% in assay [3]; 10% in assay [4]; 64% in assay [5]; 74% in assay [6].

Turning to `COC(=O)c1cc2cc(NCc3cc(NC(=O)c4cccc(C(C)C)c4)ccc3C)cnc2[nH]1`, the inhibition in assay [1] was found to be 24%; in assay [2], 32%; in assay [3], 61%; in assay [4], 15%; in assay [5], 52%; in assay [6] it was 99%.

`CC(=O)c1cc2cc(NCc3cc(NC(=O)c4ccc(CN5CCN(C)CC5)cc4)ccc3C)cnc2[nH]1`: the inhibition in assay [1] was 35%; in assay [2], 88%; in assay [3] it was 96%; in assay [4], 5%; in assay [5] it was 99%; in assay [6], 87%.

With `COC(=O)c1cc2cc(NCc3cc(NC(=O)c4ccc(C(F)(F)F)nc4)ccc3C)cnc2[nH]1`, the inhibition in assay [1] was 50%; in assay [2] it was 0%; in assay [3], 76%; in assay [4], -7%; in assay [5], 81%; in assay [6], 39%.

Regarding `COC(=O)c1cc2cc(NCc3cc(NC(=O)Cc4cccc(C(F)(F)F)c4)ccc3C)cnc2[nH]1`, the inhibition in assay [1] stood at 61%; in assay [2], 29%; in assay [3], 87%; in assay [4], 6%; in assay [5], 2%; in assay [6], 58%.

`COC(=O)c1cc2cc(CCc3cc(NC(=O)c4ccc(CN5CCN(C)CC5)cc4)ccc3C)cnc2[nH]1`: the inhibition is 98% in assay [2]; 99% in assay [3]; 35% in assay [4]; 98% in assay [5]; 91% in assay [6].

Turning to `Cc1cn(-c2cc(C(=O)Nc3ccc(C)c(CNc4cnc5[nH]c(C(=O)O)cc5c4)c3)cc(C(F)(F)F)c2)cn1`, the inhibition came to 18% in assay [1]; 58% in assay [2]; 63% in assay [3]; 49% in assay [4]; 91% in assay [5]; 69% in assay [6].

Turning to `CC(=O)c1cc2cc(NCc3cc(NC(=O)c4cc(-n5cnc(C)c5)cc(C(F)(F)F)c4)ccc3C)cnc2[nH]1`, the inhibition came out at 55% in assay [1]; 24% in assay [2]; 24% in assay [3]; 13% in assay [4]; 43% in assay [5]; 59% in assay [6].

For the compound `COC(=O)c1cc2cc(NCc3cc(NC(=O)c4cccc(Br)c4)ccc3C)cnc2[nH]1`, the inhibition in assay [1] came out at 63%; in assay [2], 59%; in assay [3], 87%; in assay [4], 1%; in assay [5], 35%; in assay [6], 85%.

With `Cc1ccc(NC(=O)c2ccc(CN3CCN(C)CC3)cc2)cc1CNc1cnc2[nH]c(C(=O)O)cc2c1`, the inhibition in assay [1] stood at 12%; in assay [2] it was 72%; in assay [3], 79%; in assay [4], 14%; in assay [5] it was 96%; in assay [6], 75%.

As to `COC(=O)c1cc2cc(CNc3cc(NC(=O)c4ccc(CN5CCN(C)CC5)cc4)ccc3C)cnc2[nH]1`, the inhibition in assay [1] stood at 17%; in assay [2], 46%; in assay [3] it was 88%; in assay [4], 8%; in assay [5] it was 63%; in assay [6], 47%.

Take `COC(=O)c1cc2cc(NCc3cc(NC(=O)c4cccc(C(F)(F)F)c4)ccc3C)cnc2[nH]1`: the inhibition in assay [1] stood at 39%; in assay [2], 38%; in assay [3], 68%; in assay [4], 7%; in assay [5], 63%; in assay [6] it was 108%.

As for `COC(=O)c1cc2cc(NCc3cc(NC(=O)c4cccc(OC(F)(F)F)c4)ccc3C)cnc2[nH]1`, the inhibition turned out to be 29% in assay [1]; 40% in assay [2]; 66% in assay [3]; 8% in assay [4]; 39% in assay [5]; 105% in assay [6].

For the compound `COC(=O)c1cc2cc(NCc3cc(NC(=O)c4ccc(Cl)c(C(F)(F)F)c4)ccc3C)cnc2[nH]1`, the inhibition in assay [1] turned out to be 11%; in assay [2], 9%; in assay [3] it was 71%; in assay [4] it was 5%; in assay [5], 64%; in assay [6], 86%.

Turning to `COC(=O)c1cc2cc(NCc3cc(NC(=O)c4ccnc(C(F)(F)F)c4)ccc3C)cnc2[nH]1`, the inhibition in assay [1] is -7%; in assay [2], 13%; in assay [3], 42%; in assay [4], -2%; in assay [5] it was 32%; in assay [6], 42%.

Take `COC(=O)c1cc2cc(NCc3cc(NC(=O)Cc4ccccc4Br)ccc3C)cnc2[nH]1`: the inhibition in assay [1] was 71%; in assay [2], 41%; in assay [3], 97%; in assay [4], 8%; in assay [5], -1%; in assay [6], 65%.

For the compound `COC(=O)c1cc2cc(NCc3cc(NC(=O)c4ccccc4OC)ccc3C)cnc2[nH]1`, the inhibition in assay [1] is 62%; in assay [2] it was 42%; in assay [3] it was 93%; in assay [4], 12%; in assay [5], 16%; in assay [6] it was 78%.

Regarding `COC(=O)c1cc2cc(/C=C/c3cc(NC(=O)c4ccc(CN5CCN(C)CC5)cc4)ccc3C)cnc2[nH]1`, the inhibition in assay [1] is 24%; in assay [2] it was 51%; in assay [3], 88%; in assay [4] it was 2%; in assay [5], 38%; in assay [6], 40%.

With `COC(=O)c1cc2cc(NCc3cc(NC(=O)c4ccc(O)c(C(F)(F)F)c4)ccc3C)cnc2[nH]1`, the inhibition stood at 37% in assay [1]; 36% in assay [2]; 74% in assay [3]; 3% in assay [4]; 53% in assay [5]; 66% in assay [6].

With `COC(=O)c1cc2cc(NCc3cc(NC(=O)c4cc[nH]c4)ccc3C)cnc2[nH]1`, the inhibition in assay [1] was found to be 51%; in assay [2], 37%; in assay [3], 71%; in assay [4], 4%; in assay [5], 15%; in assay [6], 11%.

For `COC(=O)c1cc2cc(COc3cc(NC(=O)c4ccc(CN5CCN(C)CC5)cc4)ccc3C)cnc2[nH]1`, the inhibition in assay [1] turned out to be 7%; in assay [2] it was 67%; in assay [3] it was 98%; in assay [4], 14%; in assay [5] it was 81%; in assay [6], 58%.

For the compound `Cc1ccc(NC(=O)c2ccc(CN3CCC(N(C)C)C3)c(C(F)(F)F)c2)cc1CNc1cnc2[nH]c(C(=O)O)cc2c1` (stereo unspecified), the inhibition in assay [1] was determined as 33%; in assay [2], 80%; in assay [3] it was 66%; in assay [4], 71%; in assay [5], 98%; in assay [6], 86%.

Turning to `COC(=O)c1cc2cc(NCc3cc(NC(=O)c4ccc(-c5csc(C)n5)cc4)ccc3C)cnc2[nH]1`, the inhibition was 35% in assay [1]; 13% in assay [2]; 74% in assay [3]; -1% in assay [4]; 66% in assay [5]; 72% in assay [6].

Take `COC(=O)c1cc2cc(NCc3cc(NC(=O)c4cccc(C)c4)ccc3C)cnc2[nH]1`: the inhibition worked out at 74% in assay [1]; 72% in assay [2]; 87% in assay [3]; 6% in assay [4]; 32% in assay [5]; 84% in assay [6].

On to `COC(=O)c1cc2cc(NCc3cc(NC(=O)c4ccc5nn[nH]c5c4)ccc3C)cnc2[nH]1`, for which the inhibition in assay [1] worked out at 69%; in assay [2] it was 18%; in assay [3], 77%; in assay [4] it was 4%; in assay [5] it was 20%; in assay [6], 34%.

Consider `COC(=O)c1cc2cc(/C=C/c3cc(NC(=O)c4ccc(CN5CCC(N(C)C)C5)c(C(F)(F)F)c4)ccc3C)cnc2[nH]1` (stereo unspecified), for which the inhibition in assay [1] amounted to 33%; in assay [2] it was 61%; in assay [3] it was 68%; in assay [4], 38%; in assay [5] it was 59%; in assay [6], 55%.

Take `COC(=O)c1cc2cc(NCc3cc(NC(=O)c4cc(N(C)C)cc(C(F)(F)F)c4)ccc3C)cnc2[nH]1`: the inhibition in assay [1] worked out at 14%; in assay [2] it was 22%; in assay [3] it was 42%; in assay [4], 5%; in assay [5], 42%; in assay [6], 108%.

(Values after ChEMBL document CHEMBL3808348, “Rational Design, Synthesis, and Biological Evaluation of 7-Azaindole Derivatives as Potent Focused Multi-Targeted Kinase Inhibitors” (J Med Chem, 2016).)
